Assay results published in patent publication US4873236A, “Condensed diazepinones, processes for preparing them and pharmaceutical compositions containing these compounds” (Dr. Karl Thomae GmbH, priority 1986, dated 1989).

Assays:
[1] = target: T1, muscarinic receptors, heart atrium (Rattus norvegicus, UniProt P10980); test: Receptor bonding test in vivo, heart atrium (3H-NMS); parameters: species or system female rats; conditions: for potency in the heart (in words): Table V, atrium/ventricle, vs comparison substances; for ED50: iv, 0.5 h, i.v., 113 ng/kg 3H-NMS, read-out: ID50 Heart Atrium
T1 construct: from tissue; host or cells: heart (atrium, ventricle) of female rats, labelled in vivo
T1 sequence (P10980 1-466): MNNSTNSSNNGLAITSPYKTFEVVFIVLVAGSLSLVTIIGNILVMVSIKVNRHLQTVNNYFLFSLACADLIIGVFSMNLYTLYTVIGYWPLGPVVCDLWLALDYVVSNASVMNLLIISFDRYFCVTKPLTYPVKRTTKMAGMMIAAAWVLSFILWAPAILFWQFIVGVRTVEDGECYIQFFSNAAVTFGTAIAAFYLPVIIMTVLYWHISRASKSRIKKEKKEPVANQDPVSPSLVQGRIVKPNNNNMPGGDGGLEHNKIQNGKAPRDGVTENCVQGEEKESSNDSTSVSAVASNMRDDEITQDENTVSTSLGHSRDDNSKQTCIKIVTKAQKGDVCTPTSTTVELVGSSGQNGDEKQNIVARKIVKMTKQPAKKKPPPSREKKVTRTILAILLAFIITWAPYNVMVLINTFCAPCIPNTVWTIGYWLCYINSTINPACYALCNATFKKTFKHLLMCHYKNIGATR
Protocol: (§1) For these experiments, female rats with a body weight of about 200 g were used. Before the start of the test the animals were anaesthetised with a dosage of 1.25 g/kg of urethane. The animals were each given the prescribed dosage of test substance by intravenous injection. After 15 minutes, 113 ng/kg of ^3 H-N-methylscopolamine (^3 H-NMS) were administered by the same route. After another 15 minutes the animals were killed and the heart, bronchi and lachrymal glands were removed. These organs were dissolved in Soluene R and the radioactivity was determined. The measurements were assumed to be total bonding. […] ID50 values were determined for the individual organs using these tests.

[2] = target: T2, muscarinic receptors, heart ventricle (Rattus norvegicus, UniProt P10980); test: Receptor bonding test in vivo, heart ventricle (3H-NMS); parameters: species or system female rats; conditions: iv, 0.5 h, in vivo binding, i.v., 113 ng/kg 3H-NMS, read-out: ID50 Heart Ventricle
T2 construct: the heart, bronchi and lachrymal glands were removed; from tissue; host or cells: heart (atrium, ventricle) of female rats, labelled in vivo
T2 sequence (P10980 1-466): T1 sequence (P10980 1-466)
Protocol: as §1

M2 (vagal bradycardia) = target: T3, M2 (vagal bradycardia) (Rattus norvegicus, UniProt P10980); test: M1/M2 selectivity in the rat: inhibition of vagally stimulated bradycardia (M2); format: in vivo, male THOM rats; conditions: iv, 5 min, i.v., 50% reduction in vagal bradycardia, read-out: M2 activity (rat) ED50
T3 construct: The bradycardia produced by vagus stimulation; from tissue; host or cells: whole animal (male THOM rats), heart
T3 sequence (P10980 1-466): T1 sequence (P10980 1-466)
Protocol: The method used was described by Hammer and Giachetti (Life Sciences 31, 2991-2998 (1982)). 5 minutes after intravenous injection of increasing doses of the substance, either the right vagus was electrically stimulated (frequency: 25 Hz; pulse width: 2 ms; duration of stimulus: 30 s; number of volts: supramaximal) or 0.3 mg/kg of McN-A-343 was injected intravenously into male THOM rats. The bradycardia produced by vagus stimulation and the increase in blood pressure produced by McN-A-343 were measured.

[3] = target: T4, muscarinic receptors, ileum (Cavia porcellus, UniProt H0W1Z3); test: Dissociation constants (KB) on ileum, methacholine antagonism; conditions: guinea pig ileum, 30 min contact, read-out: KB Ileum (dissociation constant)
T4 construct: The ileum was removed and incubated in Krebs-Henseleit solution; from tissue; host or cells: isolated ileum of guinea pig
Protocol: Dissociation constants (KB values) were determined in vitro on the guinea pig ileum and spontaneously beating atrium. The ileum was removed and incubated in Krebs-Henseleit solution in an organ bath. Contractions were produced by means of increasing concentrations of methacholine (M) so that a full concentration-activity curve could be plotted.

[4] = target: T5, M1 (rise in blood pressure by McN-A-343) (Rattus norvegicus, UniProt P08482); test: M1/M2 selectivity in the rat: inhibition of McN-A-343 blood pressure increase (M1); format: in vivo, male THOM rats; conditions: iv, 5 min, i.v., 50% reduction in blood pressure rise by 0.3 mg/kg McN-A-343, read-out: M1 activity (rat) ED50
T5 construct: from tissue
T5 sequence (P08482 1-460): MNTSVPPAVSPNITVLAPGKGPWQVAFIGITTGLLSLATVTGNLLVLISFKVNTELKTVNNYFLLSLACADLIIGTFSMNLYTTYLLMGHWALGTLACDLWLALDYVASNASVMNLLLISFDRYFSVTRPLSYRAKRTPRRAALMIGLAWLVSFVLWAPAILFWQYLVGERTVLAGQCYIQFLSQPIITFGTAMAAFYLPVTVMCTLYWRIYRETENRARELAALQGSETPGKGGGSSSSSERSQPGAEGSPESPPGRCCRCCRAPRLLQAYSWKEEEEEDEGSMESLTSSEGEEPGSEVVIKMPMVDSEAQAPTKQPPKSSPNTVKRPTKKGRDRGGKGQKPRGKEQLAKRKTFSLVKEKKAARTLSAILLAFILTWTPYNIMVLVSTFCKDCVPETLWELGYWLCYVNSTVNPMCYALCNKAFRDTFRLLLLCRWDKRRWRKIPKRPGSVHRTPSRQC

[5] = tested on: muscarinic receptors of the atrium; test: Dissociation constants (KB) on spontaneously beating right atrium, methacholine antagonism; parameters: species or system guinea pig; conditions: Table IV
Protocol: Dissociation constants (KB values) were determined in vitro on the guinea pig ileum and spontaneously beating atrium. The ileum was removed and incubated in Krebs-Henseleit solution in an organ bath. Contractions were produced by means of increasing concentrations of methacholine (M) so that a full concentration-activity curve could be plotted. Then M was washed out, the test substance was added and kept in contact for 30 minutes and again a concentration-activity curve was plotted with M. The dissociation constant was calculated according to Arunlakshana and Schild (Brit. J. Pharmacol. 14, 48, 1959) from the dosage ratio (DR), i.e. the extent of displacement of the concentration-activity curve.
In the isolated, spontaneously beating right atrium M reduced the heart rate as a function of the concentration. This effect was stopped by the addition of an antimuscarinic. Dissociation constants for the muscarinic receptors of the atrium were obtained in the same way as described above. A comparison of the dissociation constants measured in the two different tissues made it possible to identify cardioselective substances.

[6] = tested on: muscarinic receptors, bronchi; test: Receptor bonding test in vivo, bronchi (3H-NMS); parameters: species or system female rats; conditions: in vivo binding, i.v., rat, 113 ng/kg 3H-NMS; 30 min
Protocol: as §1

[7] = target: T6, muscarinic receptors, heart (Rattus norvegicus, UniProt P10980); test: Receptor bonding test in vitro, heart (displacement of 3H-N-methylscopolamine); format: binding, Sprague-Dawley rats; conditions: for IC50: 0.3 nmolar 3H-NMS, 30° C., 45 min, heart
T6 construct: After removal of the heart and submandibular gland; from tissue; host or cells: whole heart of male Sprague-Dawley rats, homogenate
T6 sequence (P10980 1-466): T1 sequence (P10980 1-466)

T4 sequence (H0W1Z3 1-590): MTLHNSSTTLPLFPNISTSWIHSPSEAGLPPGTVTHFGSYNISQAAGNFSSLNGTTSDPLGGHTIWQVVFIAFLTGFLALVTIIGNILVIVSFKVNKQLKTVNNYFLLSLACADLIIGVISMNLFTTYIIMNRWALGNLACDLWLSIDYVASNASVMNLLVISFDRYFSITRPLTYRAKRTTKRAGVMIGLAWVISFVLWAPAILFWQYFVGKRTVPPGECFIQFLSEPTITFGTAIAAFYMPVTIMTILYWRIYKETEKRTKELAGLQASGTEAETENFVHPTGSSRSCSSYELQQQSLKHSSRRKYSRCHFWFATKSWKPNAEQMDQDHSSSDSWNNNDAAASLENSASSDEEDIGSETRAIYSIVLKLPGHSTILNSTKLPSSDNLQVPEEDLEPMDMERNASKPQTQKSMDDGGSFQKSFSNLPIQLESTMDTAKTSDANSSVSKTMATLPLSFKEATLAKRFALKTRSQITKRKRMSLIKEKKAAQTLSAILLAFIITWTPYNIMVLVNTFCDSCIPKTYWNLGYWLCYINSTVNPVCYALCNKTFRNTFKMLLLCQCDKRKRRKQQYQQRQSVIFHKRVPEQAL

| ED50 ([1]; in vivo binding, rat) [mg/kg] | ED50 [2] [mg/kg] | ED50 (M2 (vagal bradycardia)) [mg/kg] | Kb [3] [nM] | IC50 [7] [nM] | Ratio of ID50 lachrymal gland to ID50 atrium ([1]; in vivo binding, rat, 30 min) | Selectivity factor: Ratio IC50 submandibular gland to IC50 heart [7] | Structure (SMILES) | potency in the heart (in words) [1] | ED50 [4] [mg/kg] | efficacy compared with X and Y (in words) [5] | ID50 Bronchi [6] [mg/kg] |
| --- | --- | --- | --- | --- | --- | --- | --- | --- | --- | --- | --- |
| 0.2 | 0.15 | 0.019 | 25.7 | 20 |  |  | CCCN(CCC)CC1CCCCN1CCNC(=O)N1c2ccccc2C(=O)Nc2cccnc21 (centres unmarked) [Substance A, 5,11-dihydro-11-[[[2-[2-[(dipropylamino)methyl]-piperidin-1-yl]ethyl]amino]carbonyl]-6H-pyrido[2,3-b][1,4]benzodiazepin-6-one] | decisive improvement in potency compared with substances Y and Y in the heart | 0.562 | significantly more effective than X and Y | 0.7 |
| 0.2 | 0.09 | 0.058 | 83.2 | 30 |  |  | CCN(CC)CC1CCCCN1CCNC(=O)N1c2cc(Cl)ccc2C(=O)Nc2cccnc21 (centres unmarked) [Substance C, 9-chloro-11-[[[2-[2-[(diethylamino)methyl]-piperidin-1-yl]ethyl]amino]carbonyl]-5,11-dihydro-6H-pyrido[2,3-b][1,4]benzodiazepin-6-one] | decisive improvement in potency compared with substances Y and Y in the heart | 0.36 | significantly more effective than X and Y | 3.0 |
| 0.025 | 0.006 | 0.008 | 3.63 | 3 | > 40 | 5 | CCN(CC)CC1CCCCN1CCNC(=O)N1c2ccccc2NC(=O)c2csc(C)c21 (centres unmarked) [Substance B, 4-[[[2-[2-[(diethylamino)methyl]-piperidin-1-yl]ethyl]amino]carbonyl]-4,9-dihydro-3-methyl-10H-thieno[3,4-b][1,5]benzodiazepin-10-one] | decisive improvement in potency compared with substances Y and Y in the heart | 0.033 | significantly more effective than X and Y | 0.15 |
